Measured values taken from PubChem BioAssay (NCI).
Several values for one entry are separate records, joined by “and”; a condition that tells them apart may be missing. Equal values may be shown once.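 Growth conditions: 96-well plates. Treatment: test compound, 48 hours, 5 concentrations. Analysis: linear interpolation between bracketing concentrations; unreached endpoints set to highest concentration. GI50 is the concentration that inhibits growth by half. TGI marks complete inhibition of growth.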

Assays:
Test in all cases: NCI anticancer screen, dose series, 48 h
HOP-62 NSCLC = tested on: HOP-62 NSCLC
SNB-19 CNS = tested on: SNB-19 CNS
SK-MEL-5 melanoma = tested on: SK-MEL-5 melanoma
OVCAR-8 ovarian = tested on: OVCAR-8 ovarian
RXF 393 renal = tested on: RXF 393 renal
OVCAR-5 ovarian = tested on: OVCAR-5 ovarian
OVCAR-3 ovarian = tested on: OVCAR-3 ovarian
IGROV1 ovarian = tested on: IGROV1 ovarian
XF 498 CNS = tested on: XF 498 CNS
MDA-MB-231 breast = tested on: MDA-MB-231 breast
T-47D breast = tested on: T-47D breast
EKVX NSCLC = tested on: EKVX NSCLC
RPMI-8226 leukemia = tested on: RPMI-8226 leukemia
UO-31 renal = tested on: UO-31 renal
SF-295 CNS = tested on: SF-295 CNS
DU-145 prostate = tested on: DU-145 prostate
M14 melanoma = tested on: M14 melanoma
DLD-1 colon = tested on: DLD-1 colon
HCT-15 colon = tested on: HCT-15 colon
HCC-2998 colon = tested on: HCC-2998 colon
SF-268 CNS = tested on: SF-268 CNS
NCI/ADR-RES ovarian = tested on: NCI/ADR-RES ovarian
MDA-N = tested on: MDA-N
SK-MEL-28 melanoma = tested on: SK-MEL-28 melanoma
UACC-257 melanoma = tested on: UACC-257 melanoma
SNB-78 CNS = tested on: SNB-78 CNS
LOX IMVI melanoma = tested on: LOX IMVI melanoma
COLO 205 colon = tested on: COLO 205 colon
HT29 colon = tested on: HT29 colon
HS 578T breast = tested on: HS 578T breast
OVCAR-4 ovarian = tested on: OVCAR-4 ovarian
KM12 colon = tested on: KM12 colon
HOP-92 NSCLC = tested on: HOP-92 NSCLC
SW-620 colon = tested on: SW-620 colon
M19-MEL melanoma = tested on: M19-MEL melanoma
SN12C renal = tested on: SN12C renal
A498 renal = tested on: A498 renal
TK-10 renal = tested on: TK-10 renal
KM20L2 colon = tested on: KM20L2 colon
MDA-MB-435 = tested on: MDA-MB-435
MCF7 breast = tested on: MCF7 breast
ACHN renal = tested on: ACHN renal
UACC-62 melanoma = tested on: UACC-62 melanoma
NCI-H23 lung = tested on: NCI-H23 lung
SR leukemia = tested on: SR leukemia
SNB-75 CNS = tested on: SNB-75 CNS
HL-60(TB) leukemia = tested on: HL-60(TB) leukemia
NCI-H460 lung = tested on: NCI-H460 lung
786-0 renal = tested on: 786-0 renal
PC-3 prostate = tested on: PC-3 prostate
HOP-18 NSCLC = tested on: HOP-18 NSCLC
NCI-H226 lung = tested on: NCI-H226 lung
BT-549 breast = tested on: BT-549 breast
NCI-H522 lung = tested on: NCI-H522 lung
HCT-116 colon = tested on: HCT-116 colon
U251 CNS = tested on: U251 CNS
MOLT-4 leukemia = tested on: MOLT-4 leukemia
MALME-3M melanoma = tested on: MALME-3M melanoma
K-562 leukemia = tested on: K-562 leukemia
A549 NSCLC = tested on: A549 NSCLC
LXFL 529 NSCLC = tested on: LXFL 529 NSCLC
CCRF-CEM leukemia = tested on: CCRF-CEM leukemia
DMS 273 small cell lung = tested on: DMS 273 small cell lung
SK-OV-3 ovarian = tested on: SK-OV-3 ovarian
SF-539 CNS = tested on: SF-539 CNS
CAKI-1 renal = tested on: CAKI-1 renal
RXF-631 renal = tested on: RXF-631 renal
SK-MEL-2 melanoma = tested on: SK-MEL-2 melanoma
DMS 114 small cell lung = tested on: DMS 114 small cell lung

CC(=O)C1(O)Cc2c(O)c3c(c(O)c2C(OC2CC(N)C(O)C(C)O2)C1)C(=O)c1ccccc1C3=O (stereo unspecified)
GI50 (HOP-62 NSCLC): < 12.6 nM
TGI (HOP-62 NSCLC): 275 nM and 118 nM
GI50 (SNB-19 CNS): < 12.2 nM
TGI (SNB-19 CNS): 970 nM and 156 nM
GI50 (SK-MEL-5 melanoma): < 11.9 nM
TGI (SK-MEL-5 melanoma): 330 nM and 69.7 nM
GI50 (OVCAR-8 ovarian): 14.7 nM
TGI (OVCAR-8 ovarian): 597 nM and 817 nM
GI50 (RXF 393 renal): 150 nM and 16.6 nM
TGI (RXF 393 renal): 553 nM and 78.5 nM
GI50 (OVCAR-5 ovarian): 26.1 nM
TGI (OVCAR-5 ovarian): 842 nM and 230 nM
GI50 (OVCAR-3 ovarian): 37.5 nM
TGI (OVCAR-3 ovarian): 987 nM and 475 nM
GI50 (IGROV1 ovarian): 38.3 nM
TGI (IGROV1 ovarian): 525 nM and 503 nM
TGI (XF 498 CNS): 181 nM
GI50 (MDA-MB-231 breast): 94.8 nM
TGI (MDA-MB-231 breast): 1220 nM
GI50 (T-47D breast): < 14.5 nM
TGI (T-47D breast): 631 nM and 219 nM
GI50 (EKVX NSCLC): 82.6 nM
TGI (EKVX NSCLC): 811 nM
GI50 (RPMI-8226 leukemia): 30.5 nM and < 13.1 nM
TGI (RPMI-8226 leukemia): 350 nM and 96.8 nM
GI50 (UO-31 renal): < 12.7 nM
TGI (UO-31 renal): 204 nM and < 30.4 nM
TGI (SF-295 CNS): 388 nM and 51.4 nM
GI50 (DU-145 prostate): < 10.4 nM
TGI (DU-145 prostate): 438 nM and 58.7 nM
GI50 (M14 melanoma): 14.5 nM
TGI (M14 melanoma): 605 nM and 158 nM
TGI (DLD-1 colon): 498 nM
GI50 (HCT-15 colon): 15.6 nM
TGI (HCT-15 colon): 520 nM and 348 nM
GI50 (HCC-2998 colon): 19.8 nM
TGI (HCC-2998 colon): 257 nM and 75.8 nM
GI50 (SF-268 CNS): 25.9 nM
TGI (SF-268 CNS): 343 nM and 233 nM
TGI (NCI/ADR-RES ovarian): 4880 nM
GI50 (MDA-N): 26 nM
TGI (MDA-N): 404 nM and 211 nM
GI50 (SK-MEL-28 melanoma): 151 nM and 49 nM
TGI (SK-MEL-28 melanoma): 490 nM and 367 nM
GI50 (UACC-257 melanoma): 37.7 nM
TGI (UACC-257 melanoma): 451 nM and 324 nM
TGI (SNB-78 CNS): 592 nM
GI50 (LOX IMVI melanoma): 21.4 nM
TGI (LOX IMVI melanoma): 243 nM and 33.5 nM
GI50 (COLO 205 colon): 22.7 nM
TGI (COLO 205 colon): 803 nM and 181 nM
GI50 (HT29 colon): 11.7 nM
TGI (HT29 colon): 432 nM and 234 nM
TGI (HS 578T breast): 391 nM
GI50 (OVCAR-4 ovarian): 66.3 nM
TGI (OVCAR-4 ovarian): 996 nM
GI50 (KM12 colon): 16.7 nM
TGI (KM12 colon): 713 nM and 227 nM
GI50 (HOP-92 NSCLC): 16.5 nM
TGI (HOP-92 NSCLC): 867 nM and 413 nM
GI50 (SW-620 colon): < 11.4 nM
TGI (SW-620 colon): 597 nM and 262 nM
TGI (M19-MEL melanoma): 121 nM
GI50 (SN12C renal): < 11.7 nM
TGI (SN12C renal): 115 nM and 163 nM
TGI (A498 renal): 45.3 nM
TGI (TK-10 renal): 158 nM
TGI (KM20L2 colon): 203 nM
GI50 (MDA-MB-435): 67.4 nM
TGI (MDA-MB-435): 389 nM and 470 nM
TGI (MCF7 breast): 1500 nM
TGI (ACHN renal): 97 nM and 26.8 nM
GI50 (UACC-62 melanoma): < 12.3 nM
TGI (UACC-62 melanoma): 306 nM and 84.2 nM
GI50 (NCI-H23 lung): < 12 nM
TGI (NCI-H23 lung): 120 nM and 46 nM
TGI (SR leukemia): 81.3 nM
GI50 (SNB-75 CNS): 29.3 nM
TGI (SNB-75 CNS): 594 nM and 103 nM
TGI (HL-60(TB) leukemia): 80.6 nM and < 10.8 nM
TGI (NCI-H460 lung): 83.6 nM and 12.3 nM
TGI (786-0 renal): 40.9 nM
GI50 (PC-3 prostate): 43.7 nM
TGI (PC-3 prostate): 741 nM
TGI (HOP-18 NSCLC): 86.9 nM
GI50 (NCI-H226 lung): < 11.3 nM
TGI (NCI-H226 lung): 139 nM and 53.8 nM
GI50 (BT-549 breast): 60.3 nM
TGI (BT-549 breast): 652 nM and 1200 nM
GI50 (NCI-H522 lung): 18.3 nM
TGI (NCI-H522 lung): 119 nM and 67.2 nM
TGI (HCT-116 colon): 620 nM and 174 nM
GI50 (U251 CNS): < 11.5 nM
TGI (U251 CNS): 419 nM and 130 nM
GI50 (MOLT-4 leukemia): 1.82 nM
TGI (MOLT-4 leukemia): 12.2 nM and < 109 nM
TGI (MALME-3M melanoma): 66.6 nM
GI50 (K-562 leukemia): < 10.9 nM
TGI (K-562 leukemia): 780 nM and 716 nM
TGI (A549 NSCLC): 338 nM
TGI (LXFL 529 NSCLC): 250 nM
GI50 (CCRF-CEM leukemia): 2.14 nM
TGI (DMS 273 small cell lung): < 10.8 nM
GI50 (SK-OV-3 ovarian): < 12.9 nM
TGI (SK-OV-3 ovarian): 788 nM and 129 nM
GI50 (SF-539 CNS): 11.6 nM
TGI (SF-539 CNS): 199 nM and 51.1 nM

CC(=O)n1ccc2c(Cl)ncnc21
TGI (HOP-62 NSCLC): > 100000 nM
TGI (SNB-19 CNS): > 100000 nM
TGI (SK-MEL-5 melanoma): > 100000 nM
TGI (CAKI-1 renal): > 100000 nM
TGI (RXF-631 renal): > 100000 nM
TGI (OVCAR-8 ovarian): > 100000 nM
TGI (RXF 393 renal): > 100000 nM
TGI (OVCAR-3 ovarian): > 100000 nM
TGI (IGROV1 ovarian): > 100000 nM
TGI (EKVX NSCLC): > 100000 nM
TGI (RPMI-8226 leukemia): > 100000 nM
TGI (UO-31 renal): > 100000 nM
TGI (SF-295 CNS): > 100000 nM
TGI (M14 melanoma): > 100000 nM
TGI (DLD-1 colon): > 100000 nM
TGI (HCT-15 colon): > 100000 nM
TGI (HCC-2998 colon): > 100000 nM
TGI (SF-268 CNS): > 100000 nM
TGI (SK-MEL-28 melanoma): > 100000 nM
TGI (UACC-257 melanoma): > 100000 nM
TGI (SNB-78 CNS): > 100000 nM
TGI (LOX IMVI melanoma): > 100000 nM
TGI (COLO 205 colon): > 100000 nM
TGI (HT29 colon): > 100000 nM
TGI (KM12 colon): > 100000 nM
TGI (HOP-92 NSCLC): > 100000 nM
TGI (SW-620 colon): > 100000 nM
TGI (M19-MEL melanoma): > 100000 nM
TGI (SN12C renal): > 100000 nM
TGI (A498 renal): > 100000 nM
TGI (TK-10 renal): > 100000 nM
TGI (KM20L2 colon): > 100000 nM
TGI (ACHN renal): > 100000 nM
TGI (UACC-62 melanoma): > 100000 nM
TGI (NCI-H23 lung): > 100000 nM
TGI (SR leukemia): > 100000 nM
TGI (SNB-75 CNS): > 100000 nM
TGI (HL-60(TB) leukemia): > 100000 nM
TGI (NCI-H460 lung): > 100000 nM
TGI (786-0 renal): > 100000 nM
TGI (HOP-18 NSCLC): > 100000 nM
TGI (NCI-H522 lung): > 54400 nM
TGI (HCT-116 colon): > 100000 nM
TGI (U251 CNS): > 100000 nM
TGI (MOLT-4 leukemia): > 100000 nM
TGI (K-562 leukemia): > 100000 nM
TGI (SK-MEL-2 melanoma): > 100000 nM
TGI (A549 NSCLC): > 100000 nM
TGI (LXFL 529 NSCLC): > 100000 nM
TGI (DMS 114 small cell lung): > 100000 nM
TGI (CCRF-CEM leukemia): > 100000 nM
TGI (DMS 273 small cell lung): > 100000 nM
TGI (SK-OV-3 ovarian): > 100000 nM
TGI (SF-539 CNS): > 100000 nM
